Measurements taken from ChEMBL document CHEMBL1201862, “PubChem BioAssay data set” (2004).
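In this assay, cells in 96-well plates receive the compound at five concentrations for 48 hours. Endpoints are linearly interpolated between the surrounding concentrations. At the GI50, growth is halved.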 Activity calls are given as the source filed them. Cut-off read from the data, not from the text of the source: active = GI50 up to about 1.1 µM and inactive = higher.

Tests used:
Assay in all cases: inhibition of tumour cell growth, NCI panel, 48 h
[1] = test system: SF-295
[2] = test system: PC-3
[3] = test system: UACC-257
[4] = test system: SF-268
[5] = test system: A498
[6] = test system: A549
[7] = test system: CCRF-CEM
[8] = test system: NCI-H522
[9] = test system: K562
[10] = test system: CAKI-1
[11] = test system: HT-29
[12] = test system: SK-MEL-2
[13] = test system: NCI/ADR-RES
[14] = test system: SW-620
[15] = test system: HOP-92
[16] = test system: 786-0
[17] = test system: T47D
[18] = test system: RXF 393
[19] = test system: HCT-116
[20] = test system: UO-31
[21] = test system: DU-145
[22] = test system: M14
[23] = test system: SR
[24] = test system: OVCAR-3
[25] = test system: MDA-MB-231
[26] = test system: HL-60
[27] = test system: U-251
[28] = test system: SK-MEL-5
[29] = test system: SK-OV-3
[30] = test system: Malme-3M
[31] = test system: SF-539
[32] = test system: NCI-H460
[33] = test system: EKVX
[34] = test system: LOX IMVI
[35] = test system: TK-10
[36] = test system: HCT-15
[37] = test system: MDA-MB-435
[38] = test system: MOLT-4
[39] = test system: COLO 205
[40] = test system: IGROV-1
[41] = test system: NCI-H23
[42] = test system: SNB-19
[43] = test system: HOP-62
[44] = test system: MCF7
[45] = test system: KM12
[46] = test system: OVCAR-5
[47] = test system: OVCAR-8
[48] = test system: ACHN
[49] = test system: UACC-62
[50] = test system: NCI-H226
[51] = test system: SK-MEL-28
[52] = test system: SN12C
[53] = test system: OVCAR-4
[54] = test system: HCC 2998

COc1ccc(/C=N/Nc2nc3ccccc3c(=O)n2-c2ccccc2)c(OCc2ccccc2)c1
GI50 [1]: > 100 µM (inactive) | GI50 [2]: 35.6 µM (inactive) | GI50 [3]: > 100 µM (inactive) | GI50 [4]: > 100 µM (inactive) | GI50 [5]: > 100 µM (inactive) | GI50 [6]: > 100 µM (inactive) | GI50 [7]: > 100 µM (inactive) | GI50 [8]: > 100 µM (inactive) | GI50 [9]: > 100 µM (inactive) | GI50 [10]: 34.8 µM (inactive) | GI50 [11]: > 100 µM (inactive) | GI50 [12]: 0.0656 µM (active) | GI50 [13]: > 100 µM (inactive) | GI50 [14]: > 100 µM (inactive) | GI50 [15]: 19.3 µM (inactive) | GI50 [16]: > 100 µM (inactive) | GI50 [17]: > 100 µM (inactive) | GI50 [18]: > 100 µM (inactive) | GI50 [19]: > 100 µM (inactive) | GI50 [20]: > 100 µM (inactive) | GI50 [21]: > 100 µM (inactive) | GI50 [22]: 83.9 µM (inactive) | GI50 [23]: > 100 µM (inactive) | GI50 [24]: > 100 µM (inactive) | GI50 [25]: 88.7 µM (inactive) | GI50 [26]: > 100 µM (inactive) | GI50 [27]: > 100 µM (inactive) | GI50 [28]: > 100 µM (inactive) | GI50 [29]: > 100 µM (inactive) | GI50 [30]: > 100 µM (inactive) | GI50 [31]: 14.5 µM (inactive) | GI50 [32]: > 100 µM (inactive) | GI50 [33]: 33.9 µM (inactive) | GI50 [34]: > 100 µM (inactive) | GI50 [35]: > 100 µM (inactive) | GI50 [36]: > 100 µM | GI50 [37]: > 100 µM (inactive) | GI50 [38]: > 100 µM (inactive) | GI50 [39]: > 100 µM (inactive) | GI50 [40]: > 100 µM (inactive) | GI50 [41]: > 100 µM (inactive) | GI50 [42]: > 100 µM (inactive) | GI50 [43]: > 100 µM (inactive) | GI50 [44]: 0.226 µM (active) | GI50 [45]: > 100 µM (inactive) | GI50 [46]: > 100 µM (inactive) | GI50 [47]: > 100 µM (inactive) | GI50 [48]: > 100 µM (inactive) | GI50 [49]: 70.6 µM (inactive) | GI50 [50]: > 100 µM (inactive) | GI50 [51]: > 100 µM (inactive) | GI50 [52]: > 100 µM (inactive) | GI50 [53]: > 100 µM (inactive) | GI50 [54]: > 100 µM (inactive)

CN(C)C1COC2Cc3ccccc3C1O2 (stereo not given)
GI50 [1]: > 100 µM (inactive) | GI50 [4]: > 100 µM (inactive) | GI50 [6]: > 100 µM (inactive) | GI50 [9]: > 100 µM (inactive) | GI50 [10]: > 100 µM (inactive) | GI50 [11]: > 100 µM (inactive) | GI50 [15]: > 100 µM (inactive) | GI50 [18]: > 100 µM (inactive) | GI50 [19]: > 100 µM (inactive) | GI50 [22]: > 100 µM (inactive) | GI50 [23]: > 100 µM (inactive) | GI50 [29]: > 100 µM (inactive) | GI50 [34]: > 100 µM (inactive) | GI50 [35]: > 100 µM (inactive) | GI50 [36]: > 100 µM | GI50 [41]: > 100 µM (inactive) | GI50 [46]: > 100 µM (inactive) | GI50 [47]: > 100 µM (inactive) | GI50 [48]: > 100 µM (inactive) | GI50 [52]: > 100 µM (inactive) | GI50 [53]: > 100 µM (inactive)
